Laboratory results from PMC8277928, “Influence of Terminal Functionality on the Crystal Packing Behaviour and Cytotoxicity of Aromatic Oligoamides” (Frontiers in Chemistry, 2021).
Like-named read-outs stand apart in the source and are kept apart here.

Columns and labels:
[1] = test system: PNT-2 non-malignant prostate cell line (immortalized with SV40); test: MTT cytotoxicity (chemosensitivity) assay, 96 h, non-malignant cells; type: cell-based, human; settings: 37°C, 5% CO2, read-out: IC50 values (μM) ± SD, PNT-2
Procedure: A SI value >1 indicates increased selectivity for the cancerous cell line over the non-malignant one, whilst a SI value <1 indicates the inverse (i.e., increased selectivity for the non-malignant cell line over the cancerous one). […]
(§1) In vitro chemosensitivity assays were performed against human ovarian carcinoma (A2780), cisplatin-resistant human ovarian carcinoma (A2780cisR) and human breast adenocarcinomas (MCF-7 and MDA-MB-231). Additionally, growth inhibitory effects were also tested against non-malignant prostate cell line immortalised with SV40, PNT-2. All cell lines were provided by the Institute of Cancer Therapeutics, University of Bradford and were routinely maintained as monolayer cultures in RPMI 1640 media supplemented with 10% foetal calf serum, sodium pyruvate (1 mM) and L-glutamine (2 mM). All assays were conducted in 96-well round bottom plates, with control lanes for media and 100% cell growth. Cell concentrations of 1 x 10^4 cells/mL were used, and 100 µL (or 100 µL media in control lane 1) of cell suspension were incubated for 24 h at 37 °C and 5% CO2 prior to drug exposure.
(§2) 100 mM stock solutions, which were further diluted with complete me dia to provide a range of final concentrations. After 24 h, 100 μL of the drug/media solutions were added to the plates (columns 3-12 drug concentrations, with 100 µL media in the control lanes), and then the plates incubated for 96 h at 37°C and 5% CO2. All drug solutions were added to the plates so that the final DMSO concentrations were <0.1% (v/v) in all cases. After 96 h, 3-(4,5-dimethylthiazol-2-yl)-2,5-diphenyltetrazolium bromide (MTT) (20 µL, 5 mg/mL) was added to each well and incubated for 3 h at 37 °C and 5% CO2. All solutions were then removed via pipette, 150 μL DMSO added to each well and the formazan crystals mixed thoroughly. A Thermo Scientific Multiscan EX microplate photometer was used to measure the absorbance of each well at 540 nm. Percentage cell viabilities were determined on a logarithmic scale, and the half maximal inhibitory concentration (IC50) determined from a plot of % cell survival versus concentration (µM). Each of the experiments was performed as duplicate technical repeats and triplicate experimental repeats, with mean values as the IC50 ± Standard Deviation (SD).

[2] = test system: A2780, A2780cisR, MCF-7 and MDA-MB-231 cells; test: MTT cytotoxicity assay, 96 h, range over all cancer cell lines; type: cell-based; settings: Homo sapiens, read-out: IC50 values against all cell lines (range)
Procedure: (§3) The IC50 values were obtained via the MTT assay after a 96 h incubation period of each compound with the cells at 37°C and 5% CO2 (Table 2; Figure 6). […]
as §1, with “Cell concentrations of 1 x 10^4 cells/mL were used, and 100 µL (or 100 µL media in control lane 1) of cell suspension were incubated for 24 h at 37 °C and 5% CO2 prior to drug exposure.” left out
100 mM stock solutions, which were further diluted with complete me dia to provide a range of final concentrations. […] A Thermo Scientific Multiscan EX microplate photometer was used to measure the absorbance of each well at 540 nm. Percentage cell viabilities were determined on a logarithmic scale, and the half maximal inhibitory concentration (IC50) determined from a plot of % cell survival versus concentration (µM). […]

[3] = test system: A2780 cisplatin-sensitive ovarian carcinoma cells; test: MTT cytotoxicity (chemosensitivity) assay, 96 h; type: cell-based, human; settings: for IC50: 96 h incubation, MTT, 37°C, 5% CO2, read-out: IC50 values (μM) ± SD, A2780; for Selectivity Index (SI), A2780 compared to PNT-2: IC50 PNT-2 divided by IC50 A2780, * = minimum SI value
Procedure: as §3, §1, §2

[4] = test system: MCF-7 breast adenocarcinoma cells; test: MTT cytotoxicity (chemosensitivity) assay, 96 h; type: cell-based, human; settings: for IC50: 96 h incubation, MTT, 37°C, 5% CO2, read-out: IC50 values (μM) ± SD, MCF-7; for Selectivity Index (SI), MCF-7 compared to PNT-2: IC50 PNT-2 divided by IC50 MCF-7, * = minimum SI value
Procedure: as §3, §1, §2

[5] = test system: A2780cisR cisplatin-resistant ovarian carcinoma cells; test: MTT cytotoxicity (chemosensitivity) assay, 96 h; type: cell-based, human; settings: for IC50: 96 h incubation, MTT, 37°C, 5% CO2, read-out: IC50 values (μM) ± SD, A2780cisR; for Selectivity Index (SI), A2780cisR compared to PNT-2: IC50 PNT-2 divided by IC50 A2780cisR, * = minimum SI value
Procedure: as §3, §1, §2

[6] = test system: MDA-MB-231 breast adenocarcinoma cells; test: MTT cytotoxicity (chemosensitivity) assay, 96 h; type: cell-based, human; settings: for IC50: 96 h incubation, MTT, 37°C, 5% CO2, read-out: IC50 values (μM) ± SD, MDA-MB-231; for Selectivity Index (SI), MDA-MB-231 compared to PNT-2: IC50 PNT-2 divided by IC50 MDA-MB-231, * = minimum SI value
Procedure: as §3, §1, §2

[7] = Homo sapiens, PNT2, 96 h incubation

Structure (SMILES)	IC50 [1, 7]	IC50 [2]	IC50 ([3]; Homo sapiens, A2780)	Selectivity Index (SI), A2780 compared to PNT-2 [3]	IC50 ([4]; Homo sapiens, MCF7)	IC50 ([5]; Homo sapiens, A2780cisR)	IC50 ([6]; Homo sapiens, MDA-MB-231)	Selectivity Index (SI), MDA-MB-231 compared to PNT-2 [6]	cytotoxicity in words, A2780 ([3]; 96 h MTT)	Selectivity Index (SI), A2780cisR compared to PNT-2 [5]	IC50 ([1]; 96 h incubation)	IC50 [3]	IC50 [4]	Selectivity Index (SI), MCF-7 compared to PNT-2 [4]	IC50 [5]	IC50 [6]	cytotoxicity in words, MCF-7 ([4]; 96 h MTT)	cytotoxicity in words, A2780cisR ([5]; 96 h MTT)	cytotoxicity in words, MDA-MB-231 ([6]; 96 h MTT)
CC(=O)Nc1ccccc1NC(=O)c1cccc(C(=O)Nc2ccccc2NC(C)=O)n1 [Compound 1]	> 100 µM	≥ 63 µM	77 ± 5 µM	> 1.3	> 100 µM	> 100 µM	63 ± 4 µM	> 1.6	–	–	–	–	–	–	–	–	–	–	–
Nc1ccccc1NC(=O)c1cccc(C(=O)Nc2ccccc2N)n1 [Compound 3]	> 100 µM	–	> 100 µM	–	> 100 µM	61 ± 2 µM	> 100 µM	–	non-toxic	> 1.6	–	–	–	–	–	–	–	–	–
N.N.O=C([O-])C1(C(=O)[O-])CCC1.[Pt+2] [CARB, carboplatin, reference compound]	–	–	–	–	–	–	–	0.8	–	> 0.3	27 ± 2 µM	17 ± 1 µM	> 100 µM	> 0.3	> 100 µM	33 ± 2 µM	–	–	–
CC(C)(C)OC(=O)Nc1ccccc1NC(=O)c1cccc(C(=O)Nc2ccccc2NC(=O)OC(C)(C)C)n1 [Compound 2]	> 100 µM	–	24 ± 0.9 µM	> 4.2	84 ± 3 µM	> 100 µM	69 ± 3 µM	> 1.4	–	–	–	–	–	> 1.2	–	–	moderate to non-cytotoxic	moderate to non-cytotoxic	moderate to non-cytotoxic
[NH2][Pt]([NH2])([Cl])[Cl] [CDDP, cisplatin, reference compound]	–	–	–	–	–	–	–	2.8	–	0.6	8.5 ± 0.4 µM	1.3 ± 0.1 µM	1.5 ± 0.2 µM	5.6	14 ± 1 µM	3.07 ± 0.02 µM	–	–	–
O=C1[O][Pt]2([NH][C@@H]3CCCC[C@H]3[NH]2)[O]C1=O [OXA, oxaliplatin, reference compound]	–	–	–	2.6	–	–	–	0.5	–	0.6	1.3 ± 0.2 µM	0.505 ± 0.002 µM	2.6 ± 0.2 µM	0.5	2.09 ± 0.03 µM	2.5 ± 0.6 µM	–	–	–
